Consider 18 molecules from patent US20230203004A1, “RSV INHIBITING 3-SUBSTITUTED QUINOLINE AND CINNOLINE DERIVATIVES” (Janssen Sciences Ireland Unlimited Company, priority 2020, published 2023).

Usually EC50 stands for the concentration that produces a half-maximal response. As usually defined, the CC50 is the concentration giving 50% cytotoxicity.

For one data set, the system named is rgRSV224 virus. Briefly: Antiviral activity: rgRSV224 (GFP) replication in HeLa cells. It counts as cell-based, respiratory syncytial virus (RSV). The essentials:
(§1)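 Over 3 days at 37 °C, compound titrations (4-fold steps, nine dilutions) were tested on HeLa cells infected with rgRSV224 (MOI = 1), inhibition of GFP signal giving EC50. In parallel plates, ATP content of HeLa cells after 3-day exposure defined CC50.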

In the next data set the test system is HeLa cells. Briefly: Cytotoxicity in HeLa cells (ATP content, ATPlite kit). It counts as cell-based. A digest of the protocol: as §1
(ATP-based viability assays read luminescence as a measure of living cells.)

Test in data set [1]: as above
It counts as cell-based. Particulars: human. A digest of the protocol:
as §1

The mark [2] stands for this setting: HeLa cells, rgRSV224 MOI = 1, GFP expression three days post-virus exposure, averaged data of several repeat experiments, read-out: RSV HELA EC50.
[3] abbreviates: HeLa cells, three days incubation, ATP content, averaged data of several repeat experiments, read-out: TOX HELA CC50.
Where [4] appears, read: read-out: RSV HELA EC50, HeLa cells, rgRSV224 MOI = 1, GFP expression three days post-virus exposure, averaged data of several repeat experiments.
Where [5] appears, read: human respiratory syncytial virus, HeLa, 72 h, read-out: RSV HELA EC50, HeLa cells, rgRSV224 MOI = 1, GFP expression three days post-virus exposure, averaged data of several repeat experiments.

The structures appear in SMILES notation. Read-outs that look alike come from different tables or passages of the source.

With `COc1cc(C(=O)NCC(O)(c2nc(-c3ccc(F)cc3)c(Cl)c(C(C)(C)O)c2F)C(F)(F)F)cc2cc(C)nnc12` (single isomer, unassigned; (+)) [compound 248, (+)-N-{2-[5-Chloro-3-Fluoro-6-(4-Fluorophenyl)-4-(2-Hydroxypropan-2-yl)Pyridin-2-yl]-3,3,3-Trifluoro-2-Hydroxypropyl}-8-Methoxv-3-Methylcinnoline-6-Carboxamide], the EC50 with rgRSV224 virus (setting [2]) turned out to be 0.5 µM. Moreover, the CC50 in the data set on HeLa cells (setting [3]) was found to be 41 µM.

`COc1cc(C(=O)NCC(O)(c2cc(C(C)(C)O)c(F)c(-c3ccc(F)cc3)n2)C(F)F)cc2cc(C)cnc12` (single isomer, unassigned; (-)) [compound 204, (-)-N-{3,3-Difluoro-2-[5-Fluoro-6-(4-Fluorophenyl)-4-(2-Hydroxypropan-2-yl)Pyridin-2-yl]-2-Hydroxypropyl}-8-Methoxy-3-Methylquinoline-6-Carboxamide]: the EC50 with rgRSV224 virus (setting [4]) was found to be 0.001 µM. For the same molecule, the cytotoxic concentration (CC50) with HeLa cells (human, 3 days) came to 48 µM.

Regarding `COc1cc(C(=O)NCC(O)(c2cc(C(C)(C)O)c(F)c(-c3ccc(F)cc3)n2)C(F)F)cc2cc(C)c(F)nc12` (single isomer, unassigned; (-)) [compound 214, (-)-N-{3,3-Difluoro-2-[5-Fluoro-6-(4-Fluorophenyl)-4-(2-Hydroxypropan-2-yl)Pyridin-2-yl]-2-Hydroxypropyl}-2-Fluoro-8-Methoxy-3-Methylquinoline-6-Carboxamide], the half-maximal effective concentration (EC50) in the data set on rgRSV224 virus (setting [4]) came out at 0.0014 µM. Moreover, the CC50 in the data set on HeLa cells (human, 3 days) was determined as 28 µM.

Turning to `COc1cc(C(=O)NCC(O)(c2cc(C(C)(C)O)c(Cl)c(-c3ccc(F)cc3)n2)C(C)C)cc2cc(C)nnc12` (single isomer, unassigned; (-)) [compound 231, (-)-N-{2-[5-Chloro-6-(4-Fluorophenyl)-4-(2-Hydroxypropan-2-yl)Pyridin-2-yl]-2-Hydroxy-3-Methylbutyl}-8-Methoxy-3-Methylcinnolme-6-Carboxamide], the EC50 in the data set on rgRSV224 virus (setting [2]) is 0.00041 µM. Further, the CC50 with HeLa cells (setting [3]) amounted to 21 µM.

`COc1cc(C(=O)NCC(O)(c2cc(C(C)(C)O)c(F)c(-c3ccc(F)cc3)n2)C(F)F)cc2cc(C)nnc12` (single isomer, unassigned; (-)) [compound 250, (-)-N-{3,3-Difluoro-2-[5-Fluoro-6-(4-Fluorophenyl)-4-(2-Hydroxypropan-2-yl)Pyridin-2-yl]-2-Hydroxypropyl}-8-Methoxy-3-Methylcinnoline-6-Carboxamide]: in the data set with rgRSV224 virus (setting [4]), the EC50 turned out to be 0.0014 µM. In the data set on HeLa cells (human, 3 days), the CC50 was determined as 40 µM.

Turning to `COc1cc(C(=O)NCC(O)(c2cc(C(C)(C)O)c(F)c(-c3ccc(C(F)(F)F)cc3)n2)C2CC2)cc2cc(C)nnc12` (single isomer, unassigned; (-)) [compound 253], the EC50 with rgRSV224 virus (setting [2]) is 0.00025 µM. For the same molecule, in the data set with HeLa cells (setting [3]), the 50% cytotoxic concentration (CC50) stood at 13 µM.

`COc1cc(C(=O)NCC(O)(c2cc(C(C)(C)O)c(F)c(-c3ccc(F)c(F)c3)n2)C2CC2)cc2cc(C)nnc12` (single isomer, unassigned; (-)) [compound 256]: the concentration for a half-maximal effect (EC50) with rgRSV224 virus (setting [2]) was 0.00019 µM. The cytotoxic concentration (CC50) with HeLa cells (setting [3]) was 33 µM.

As to `Cc1cc2cc(C(=O)NCC(O)(c3nc(-c4ccc(F)cc4)c(F)c(C(C)(C)O)c3F)C(F)(F)F)cc(OC3CC3)c2nn1` (single isomer, unassigned; (-)) [compound 262, (-)(Cyclopropyloxy)-N-{2-[3,5-Difluoro-6-(4-Fluorophenyl)-4-(2-Hydroxypropan-2-yl)Pyridin-2-yl]-3,3,3-Trifluoro-2-Hydroxypropyl}-3-Methylcinnoline-6-Carboxamide], in the data set on rgRSV224 virus (setting [2]), the EC50 was determined as 0.0019 µM. Also, the half-maximal cytotoxic concentration (CC50) in the data set on HeLa cells (setting [3]) was 45 µM.

With `Cc1cc2cc(C(=O)NCC(O)(c3nc(-c4ccc(F)cc4)c(Cl)c(C(C)(C)O)c3F)C(F)(F)F)cc(OC3CC3)c2nn1` (single isomer, unassigned; (-)) [compound 263], in the data set with rgRSV224 virus (setting [2]), the EC50 came to 0.0027 µM. In the data set on HeLa cells (setting [3]), the half-maximal cytotoxic concentration (CC50) was determined as 47 µM.

On to `COc1cc(C(=O)NC[C@@](O)(c2nc(-c3ccc(F)cc3)c(F)c(C(C)(C)O)c2C)C2CC2)cc2cc(C)nnc12` [compound 245], for which, in the data set on rgRSV224 virus (setting [2]), the EC50 was 0.0029 µM. Further, it took 48 µM to reach half-maximal cytotoxicity in the data set on HeLa cells (CC50).

Consider `COc1cc(C(=O)NC[C@](O)(c2nc(-c3ccc(F)cc3)c(F)c(C(C)(C)O)c2C)C2CC2)cc2cc(C)nnc12` [compound 246], for which, in the data set with rgRSV224 virus (setting [2]), the EC50 amounted to 0.2 µM. This molecule had a CC50 in the data set on HeLa cells of 46 µM.

`Cc1cc2cc(C(=O)NC[C@](O)(c3cc(C(C)(C)O)c(F)c(-c4ccc(F)cc4)n3)C3(F)CC3)cc(OC3CC3)c2nn1` [compound 317, (-)Cyclopropoxy-N-(2-(5-Fluoro-6-(4-Fluorophenyl)-4-(2-Hydroxypropan-2-yl)Pyridin-2-yl)-2-(1-Fluorocyclopropyl)-2-Hydroxyethyl)-3-Methylcinnoline-6-Carboxamide]: the concentration giving a half-maximal response (EC50) with rgRSV224 virus (setting [4]) came out at 0.00087 µM. In the data set with HeLa cells (human, 3 days), this molecule displayed a cytotoxic concentration (CC50) of 29 µM.

Take `COc1cc(C(=O)NC[C@](O)(c2cc(C(C)(C)O)c(F)c(-c3ccc(F)c(F)c3)n2)C(F)(F)F)cc2cc(C(F)F)cnc12` [compound 330, (-)(Difluoromethyl)-8-Methoxy-N-(3,3,3-Trifluoro-2-(5-Fluoro-6-(3,4-Difluorophenyl)-4-(2-Hydroxypropan-2-yl)Pyridin-2-yl)-2-Hydroxypropyl)Quinoline-6-Carboxamide]: the 50% effective concentration (EC50) in the data set with rgRSV224 virus (setting [5]) worked out at 0.01 µM. Also, the 50% cytotoxic concentration (CC50) at 3 days in data set [1] (TOX HELA CC50) came to 13 µM.

As for `COc1cc(C(=O)NC[C@](O)(c2cc(C(C)(C)O)c(Cl)c(-c3ccc(F)cc3)n2)C2CC2)cc2cc(C(F)(F)F)cnc12` [compound 331], in the data set with rgRSV224 virus (setting [5]), the concentration for a half-maximal effect (EC50) stood at 0.0038 µM. In addition, the midpoint of cytotoxicity in data set [1] (TOX HELA CC50), the CC50 at 3 days, lay at 14 µM.

On to `COc1cc(C(=O)NC[C@](O)(c2cc(C(C)(C)O)c(F)c(-c3ccc(F)cc3)n2)C2CC2)cc2cc(C3CC3)cnc12` [compound 332, (-)Cyclopropyl-N-(2-Cyclopropyl-2-(5-Fluoro-6-(4-Fluorophenyl)-4-(2-Hydroxypropan-2-yl)Pyridin-2-yl)-2-Hydroxyethyl)-8-Methoxyquinoline-6-Carboxamide], for which, in the data set with rgRSV224 virus (setting [5]), the EC50 amounted to 0.033 µM. Also, the CC50 at 3 days in data set [1] (TOX HELA CC50) came to 14 µM.

Consider `COc1cc(C(=O)NC[C@@](O)(c2cc(C(C)(C)O)c(F)c(-c3ccc(F)cc3)n2)C(F)(F)F)cc2cc(C)nnc12` [compound 334, (+)Methoxy-3-Methyl-N-(3,3,3-Trifluoro-2-(5-Fluoro-6-(4-Fluorophenyl)-4-(2-Hydroxypropan-2-yl)Pyridin-2-yl)-2-Hydroxypropyl)Cinnoline-6-Carboxamide], for which the EC50 in the data set on rgRSV224 virus (setting [5]) came to 0.245 µM. Moreover, the 50% cytotoxic concentration (CC50) at 3 days in data set [1] (TOX HELA CC50) was 17 µM.

With `Cc1cc2cc(C(=O)NC[C@](O)(c3cc(C(C)(C)O)c(F)c(-c4ccc(F)cc4)n3)C3(F)CC3)cc(OC3CC3)c2nn1` [compound 335, (-)Cyclopropoxy-N-(2-(5-Fluoro-6-(4-Fluorophenyl)-4-(2-Hydroxypropan-2-yl)Pyridin-2-yl)-2-(1-Fluorocyclopropyl)-2-Hydroxyethyl)-3-Methylcinnoline-6-Carboxamide], the EC50 in the data set with rgRSV224 virus (setting [4]) worked out at 0.021 µM. In the data set on HeLa cells (human, 3 days), the CC50 is ~14 µM.

Regarding `COc1cc(C(=O)NCC(O)(c2cc(C(C)(C)N)c(F)c(-c3ccc(F)c(Cl)c3)n2)C(F)(F)F)cc2cccnc12` (stereo not drawn) [reference compound], it took 0.053 µM to reach a half-maximal effect in the data set on rgRSV224 virus (human respiratory syncytial virus, HeLa, comparison table 5.3, antiviral RSV assay of Example 5.1) (EC50). In data set [1] (CC50), this molecule came in with a CC50 at 3 days of 13 µM.
